This passage reports IC50 results from US20230116972A1, “CD38 MODULATORS AND METHODS OF USE THEREOF” (Cytokinetics, Inc., priority 2021, published 2023).

In one assay the target is T1, human CD38 (Homo sapiens, UniProt P28907).
T1 sequence (P28907 1-300): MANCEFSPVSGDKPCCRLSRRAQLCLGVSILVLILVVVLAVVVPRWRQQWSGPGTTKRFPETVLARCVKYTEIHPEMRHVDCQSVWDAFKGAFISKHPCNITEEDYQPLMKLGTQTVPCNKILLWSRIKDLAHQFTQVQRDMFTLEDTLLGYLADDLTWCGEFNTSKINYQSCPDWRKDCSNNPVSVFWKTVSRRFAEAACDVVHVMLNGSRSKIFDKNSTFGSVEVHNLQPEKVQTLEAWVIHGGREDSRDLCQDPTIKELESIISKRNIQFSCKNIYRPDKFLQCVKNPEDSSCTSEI
In words: human recombinant CD38 enzyme assay (hydrolysis of NAD+). The format is biochemical. The settings on record: human recombinant CD38, 0.4 nM enzyme, 62.5 μM NAD+; read-out: hCD38 BioChem IC50. The procedure, abridged:
(§1)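 Steps: compound and recombinant enzyme are mixed, NAD+ is added, and the reaction runs 60 min at room temperature. An ADH/ethanol mix containing a CD38 inhibitor halts hydrolysis and forms NADH. After NaOH quench, resazurin plus diaphorase produce fluorescent resorufin, read at 540/590 nm.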

The target of assay [1] is T2, endogenous CD38 in HL60 cells (Homo sapiens, UniProt P28907).
T2 construct: endogenous in cells; host or cells: HL60 (leukemic cells, treated with all-trans retinoic acid)
T2 sequence (P28907 1-300): T1 sequence (P28907 1-300)
In words: cellular CD38 assay in HL60 cells (cellular NAD levels). The format is cell-based. The settings on record: all-trans retinoic acid, 24 hours, read-out: hCD38 HL60 ATRA NAD Cell Diaphorase IC50. The method, boiled down: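 Endogenous CD38 inhibition is inferred from NAD levels in HL60 cells after 24 h compound exposure at 20000 cells per well. A lytic cycling readout (0.2 U/mL diaphorase, 0.8 U/mL alcohol dehydrogenase, resazurin, FMN, ethanol, 0.2% Triton X-100, Tris/EDTA pH 8.4) ran 60 min at ambient temperature. Resorufin fluorescence was read at 540/590 nm.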

The target of another assay is T3, mouse CD38 (Mus musculus, UniProt P56528).
T3 sequence (P56528 1-304): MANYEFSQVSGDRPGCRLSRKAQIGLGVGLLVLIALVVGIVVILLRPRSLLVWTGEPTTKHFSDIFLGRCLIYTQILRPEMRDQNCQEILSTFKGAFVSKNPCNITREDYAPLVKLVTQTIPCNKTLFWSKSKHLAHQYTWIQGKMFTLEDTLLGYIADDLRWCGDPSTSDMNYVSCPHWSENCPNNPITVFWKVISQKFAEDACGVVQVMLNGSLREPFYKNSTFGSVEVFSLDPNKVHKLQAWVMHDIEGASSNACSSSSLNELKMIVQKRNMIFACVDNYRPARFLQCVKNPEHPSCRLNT
In words: mouse recombinant CD38 enzyme assay (hydrolysis of NAD+). In kind it is biochemical. The settings on record: read-out: mCD38 BioChem IC50. The procedure, abridged:
as §1

Molecules are shown by their SMILES.

The IC50 is the concentration that gives 50% inhibition. For `O=C(Nc1ccc(C(F)(F)F)nc1)c1nccc(-n2ccnc2)n1` [Compound 72, 4-(1H-imidazol-1-yl)-N-(6-(trifluoromethyl)pyridin-3-yl)pyrimidine-2-carboxamide], the figures for the IC50 (on human CD38; in assay [1]; on mouse CD38) were 4 nM, 295 nM and 19 nM, respectively.
The matching figures for `O=C(N[C@H]1CC[C@H](C(F)F)CC1)c1nccc(-n2ccnc2)n1` [Compound 73, N-((1r,4r)-4-(difluoromethyl)cyclohexyl)-4-(1H-imidazol-1-yl)pyrimidine-2-carboxamide]: 60 nM, 1990 nM and 33 nM.
On to `Cn1cncc1-c1ccnc(C(=O)Nc2ccc(C(F)(F)F)nc2)n1` [Compound 74, 4-(1-methyl-1H-imidazol-5-yl)-N-(6-(trifluoromethyl)pyridin-3-yl)pyrimidine-2-carboxamide], for which the IC50 on human CD38 was 3 nM; in assay [1] it was 349 nM; on mouse CD38, 10 nM.
The matching figures for `Cn1cncc1-c1ccnc(C(=O)N[C@H]2CC[C@H](C(F)F)CC2)n1` [Compound 75, N-((1r,4r)-4-(difluoromethyl)cyclohexyl)-4-(1-methyl-1H-imidazol-5-yl)pyrimidine-2-carboxamide]: 41 nM, 1360 nM and 19 nM.
The matching figures for `Cn1cncc1-c1cccc(C(=O)N[C@H]2CC[C@H](C(F)F)CC2)n1` [Compound 77, N-(4-(difluoromethyl)cyclohexyl)-6-(1-methyl-1H-imidazol-5-yl)picolinamide]: 131 nM, 3360 nM and 32 nM.
`O=C(NC1CC2(C1)CC(F)(F)C2)c1ccnc(-n2ccnc2)n1` [Compound 78, N-(6,6-difluorospiro[3.3]heptan-2-yl)-2-(1H-imidazol-1-yl)pyrimidine-4-carboxamide]: the IC50 on human CD38 was 79 nM; in assay [1] it was 1110 nM; on mouse CD38 it was 16 nM.
For the molecule `O=C(N[C@H]1CC[C@H](C(F)(F)F)CC1)c1ccnc(-n2ccnc2)n1` [Compound 79, 2-(1H-imidazol-1-yl)-N-((1r,4r)-4-(trifluoromethyl)cyclohexyl)pyrimidine-4-carboxamide], the concentration for half-maximal inhibition (IC50) was found to be 21 nM at human CD38, 2330 nM in assay [1] and 12 nM on mouse CD38.
On to `Cn1cncc1-c1nccc(C(=O)NC2CC3(C2)CC(F)(F)C3)n1` [Compound 82, N-(6,6-difluorospiro[3.3]heptan-2-yl)-2-(1-methyl-1H-imidazol-5-yl)pyrimidine-4-carboxamide], for which the values for the 50% inhibitory concentration (IC50) (at human CD38; in assay [1]; on mouse CD38) were 10 nM, 1080 nM and 3 nM, respectively.
As to `Cn1cncc1-c1nccc(C(=O)N[C@H]2CC[C@H](C(F)(F)F)CC2)n1` [Compound 83, 2-(1-methyl-1H-imidazol-5-yl)-N-((1r,4r)-4-(trifluoromethyl)cyclohexyl)pyrimidine-4-carboxamide], the figures for the IC50 (at human CD38; in assay [1]; on mouse CD38) were 11 nM, 2770 nM and 6 nM, respectively.
The matching figures for `CO[C@H]1CC[C@H](NC(=O)c2ccnc(-c3cncn3C)n2)CC1` [Compound 84, N-((1r,4r)-4-methoxycyclohexyl)-2-(1-methyl-1H-imidazol-5-yl)pyrimidine-4-carboxamide]: 12 nM, 1110 nM and 2 nM.
The matching figures for `Cn1cncc1-c1nccc(C(=O)N[C@H]2CC[C@H](C)CC2)n1` [Compound 85, 2-(1-methyl-1H-imidazol-5-yl)-N-((1r,4r)-4-methylcyclohexyl)pyrimidine-4-carboxamide]: 7 nM, 765 nM and 2 nM.
For `O=C(Nc1ccc(C(F)(F)F)nc1)c1ccnc(-c2cncs2)n1` [Compound 86, 2-(thiazol-5-yl)-N-(6-(trifluoromethyl)pyridin-3-yl)pyrimidine-4-carboxamide], the IC50 on human CD38 was found to be 194 nM; in assay [1] it was 8810 nM; on mouse CD38, 219 nM.
With `O=C(N[C@H]1CC[C@H](C(F)F)CC1)c1ccnc(-c2cncs2)n1` [Compound 87, N-((1r,4r)-4-(difluoromethyl)cyclohexyl)-2-(thiazol-5-yl)pyrimidine-4-carboxamide], the IC50 on human CD38 was found to be 562 nM; in assay [1], 10100 nM; at mouse CD38, 138 nM.
As for `O=C(N[C@H]1CC[C@H](C(F)F)CC1)c1cncc(-n2ccnc2)n1` [Compound 89, N-((1r,4r)-4-(difluoromethyl)cyclohexyl)-6-(1H-imidazol-1-yl)pyrazine-2-carboxamide], the concentration for half-maximal inhibition (IC50) at human CD38 amounted to 22 nM; in assay [1], 915 nM; on mouse CD38 it was 10 nM.
The matching figures for `Cn1cncc1-c1cncc(C(=O)Nc2ccc(C(F)(F)F)nc2)n1` [Compound 90, 6-(1-methyl-1H-imidazol-5-yl)-N-(6-(trifluoromethyl)pyridin-3-yl)pyrazine-2-carboxamide]: 4 nM, 369 nM and 13 nM.
The matching figures for `CO[C@H]1CC[C@H](NC(=O)c2cncc(-c3cncn3C)n2)CC1` [Compound 91, N-((1r,4r)-4-methoxycyclohexyl)-6-(1-methyl-1H-imidazol-5-yl)pyrazine-2-carboxamide]: 38 nM, 2080 nM and 19 nM.
The matching figures for `Cn1cncc1-c1cncc(C(=O)N[C@H]2CC[C@H](C(F)F)CC2)n1` [Compound 92, N-((1r,4r)-4-(difluoromethyl)cyclohexyl)-6-(1-methyl-1H-imidazol-5-yl)pyrazine-2-carboxamide]: 22 nM, 1180 nM and 13 nM.
Turning to `O=C(Nc1ccc(C(F)F)nc1)c1ccnc(-n2ccnc2)n1` [Compound 93, N-(6-(difluoromethyl)pyridin-3-yl)-2-(1H-imidazol-1-yl)pyrimidine-4-carboxamide], the half-inhibitory concentration (IC50) is 2 nM at human CD38, 187 nM in assay [1] and 5 nM at mouse CD38.
The matching figures for `Cn1cncc1-c1nccc(C(=O)Nc2ccc(C(F)F)nc2)n1` [Compound 94, N-(6-(difluoromethyl)pyridin-3-yl)-2-(1-methyl-1H-imidazol-5-yl)pyrimidine-4-carboxamide]: 2 nM, 241 nM and 2 nM.
The matching figures for `O=C(Nc1ccc(C(F)F)nc1)c1cccc(-n2ccnc2)n1` [Compound 95, N-(6-(difluoromethyl)pyridin-3-yl)-6-(1H-imidazol-1-yl)picolinamide]: 4 nM, 280 nM and 6 nM.
The matching figures for `CO[C@H]1CC[C@H](NC(=O)c2cc(C)cc(-n3ccnc3)n2)CC1` [Compound 96, 6-(1H-imidazol-1-yl)-N-(4-methoxycyclohexyl)-4-methylpicolinamide]: 23 nM, 1630 nM and 3 nM.
`Cc1cc(C(=O)N[C@H]2CC[C@H](C(F)F)CC2)nc(-n2ccnc2)c1` [Compound 97, N-(4-(difluoromethyl)cyclohexyl)-6-(1H-imidazol-1-yl)-4-methylpicolinamide]: the IC50 stood at 24 nM at human CD38, 1530 nM in assay [1] and 3 nM at mouse CD38.
